DBAASP
In brackets after ≈: the same amount, converted by molar mass. Each block holds one compound with its values, some of them ahead of it.

What was measured:
Experiment in all cases: ≥ marks a high value that may be exact or a test limit, other limits are often not marked, values filed in µg/mL are converted to µM
[1] = system: Cronobacter muytjensii ATCC 51329
[2] = system: Cronobacter sakazakii ATCC BAA-894
[3] = system: Cronobacter sakazakii DPC 6440
[4] = system: Cronobacter sakazakii DSM 4485
[5] = system: Escherichia coli NCIMB 11843
[6] = system: Klebsiella pneumoniae NCIMB 13218
[7] = system: Pseudomonas fluorescens NCIMB 9046
[8] = system: Salmonella enterica subsp. enterica serovar Typhimurium LT2
[9] = system: Staphylococcus aureus NCTC 8325-4
[10] = system: Staphylococcus aureus Newman
[11] = system: Staphylococcus aureus RF122
[12] = system: Staphylococcus aureus RN4220
[13] = system: Staphylococcus aureus SA113
Bacillus subtilis 168 = system: Bacillus subtilis 168
[14] = system: Candida albicans F7-39/IDE99
Escherichia coli B = system: Escherichia coli B
[15] = system: Micrococcus luteus CCM 144
[16] = system: Pseudomonas aeruginosa ATCC 27853
Pseudomonas aeruginosa = system: Pseudomonas aeruginosa
Staphylococcus aureus 1 = system: Staphylococcus aureus 1
[17] = system: Staphylococcus aureus ATCC 43300
Staphylococcus aureus = system: Staphylococcus aureus
[18] = system: Staphylococcus epidermidis
[19] = system: Fusarium graminearum PH-1
Escherichia coli MG1655 = system: Escherichia coli MG1655
[20] = system: Klebsiella pneumoniae ATCC 700603
[21] = system: Pseudomonas aeruginosa ATCC 10145
[22] = system: Staphylococcus aureus ATCC 25923
Escherichia coli BL21AI = system: Escherichia coli BL21AI
[23] = system: Micrococcus luteus ATCC 10240

MIC [1]: ≥ 2500 µM
MIC [2]: ≥ 2500 µM
MIC [3]: ≥ 2500 µM
MIC [4]: ≥ 2500 µM
MIC [5]: ≥ 2500 µM
MIC [6]: ≥ 2500 µM
MIC [7]: ≥ 2500 µM
MIC [8]: ≥ 2500 µM
MIC [9]: ≥ 2500 µM
MIC [10]: ≥ 2500 µM
MIC [11]: ≥ 2500 µM
MIC [12]: ≥ 2500 µM
MIC [13]: ≥ 2500 µM
Structure (SMILES): CC(C)C[C@H](NC(=O)[C@H](CC(C)C)NC(=O)[C@H](CC(N)=O)NC(=O)[C@H](CC(=O)O)NC(=O)[C@H](CC(N)=O)NC(=O)[C@H](CC(C)C)NC(=O)[C@@H](N)C(C)C)C(=O)N[C@@H](CCCN=C(N)N)C(=O)O [VLNDNLLR]

MIC [1]: ≥ 1250 µM
MIC [2]: ≥ 1250 µM
MIC [3]: ≥ 625 µM
MIC [4]: ≥ 1250 µM
MIC [5]: ≥ 2500 µM
MIC [6]: ≥ 1250 µM
MIC [7]: ≥ 2500 µM
MIC [8]: ≥ 2500 µM
MIC [9]: ≥ 1250 µM
MIC [10]: ≥ 1250 µM
MIC [11]: ≥ 312 µM
MIC [12]: ≥ 312 µM
MIC [13]: ≥ 1250 µM
Structure (SMILES): CC[C@H](C)[C@H](N)C(=O)N[C@@H](C)C(=O)N[C@@H](C)C(=O)N[C@@H](C)C(=O)NCC(=O)N[C@@H](CC(C)C)C(=O)N1CCC[C@H]1C(=O)N[C@@H](CCC(N)=O)C(=O)N[C@@H](CCC(=O)O)C(=O)O [IAAAGLPQE]

MIC (Bacillus subtilis 168): 7 µM (≈ 12.5 µg/mL)
MIC [14]: 5.2 µM (≈ 9.3 µg/mL)
MIC (Escherichia coli B): 9 µM (≈ 16.1 µg/mL)
MIC [15]: 3 µM (≈ 5.37 µg/mL)
MIC [16]: 5 µM (≈ 8.94 µg/mL)
MIC (Pseudomonas aeruginosa): 7.4 µM (≈ 13.2 µg/mL)
MIC (Staphylococcus aureus 1): 7.6 µM (≈ 13.6 µg/mL)
MIC [17]: 32 µM (≈ 57.2 µg/mL)
MIC (Staphylococcus aureus): 23 µM (≈ 41.1 µg/mL)
MIC [18]: 1.9 µM (≈ 3.4 µg/mL)
Structure (SMILES): CC[C@H](C)[C@H](NC(=O)CN)C(=O)N[C@@H](CCSC)C(=O)N[C@@H](CO)C(=O)N[C@@H](CO)C(=O)N[C@@H](CC(C)C)C(=O)N[C@@H](CCSC)C(=O)N[C@@H](CCCCN)C(=O)N[C@@H](CCCCN)C(=O)N[C@@H](CC(C)C)C(=O)N[C@@H](CCCCN)C(=O)N[C@@H](CCCCN)C(=O)N[C@H](C(=O)N[C@H](C(=O)N[C@@H](C)C(=O)N[C@@H](CCCCN)C(N)=O)[C@@H](C)CC)[C@@H](C)CC [GIMSSLMKKLKKIIAK]

MIC [19]: ≥ 192 µM
Structure (SMILES): NCC(=O)N[C@@H](CCCN=C(N)N)C(=O)N[C@H]1CSSC[C@@H](C(=O)O)NC(=O)[C@H](CCCN=C(N)N)NC(=O)[C@H](Cc2ccccc2)NC(=O)[C@H](CC(=O)O)NC(=O)[C@H](CC(=O)O)NC(=O)[C@H](CCCN=C(N)N)NC1=O [GRCRDDFRC]

MIC [19]: 6 µM (≈ 7.59 µg/mL)
Structure (SMILES): NCC(=O)N[C@@H](CCCN=C(N)N)C(=O)N[C@H]1CSSC[C@@H](C(=O)O)NC(=O)[C@H](CCCN=C(N)N)NC(=O)[C@H](CCCN=C(N)N)NC(=O)[C@H](CCCN=C(N)N)NC(=O)[C@H](Cc2ccccc2)NC(=O)CNC(=O)[C@H](CCCN=C(N)N)NC1=O [GRCRGFRRRC]

MIC (Bacillus subtilis 168): 7 µM (≈ 12.6 µg/mL)
MIC [14]: ≥ 45 µM
MIC (Escherichia coli B): 18 µM (≈ 32.3 µg/mL)
MIC [15]: 3 µM (≈ 5.38 µg/mL)
MIC [16]: 4.5 µM (≈ 8.07 µg/mL)
MIC (Pseudomonas aeruginosa): 8.5 µM (≈ 15.2 µg/mL)
MIC (Staphylococcus aureus 1): 5.9 µM (≈ 10.6 µg/mL)
MIC [17]: 23 µM (≈ 41.2 µg/mL)
MIC (Staphylococcus aureus): 10 µM (≈ 17.9 µg/mL)
MIC [18]: 1.8 µM (≈ 3.23 µg/mL)
Structure (SMILES): CC[C@H](C)[C@H](NC(=O)CN)C(=O)N[C@@H](CC(C)C)C(=O)N[C@@H](CO)C(=O)N[C@@H](CCCCN)C(=O)N[C@@H](CC(C)C)C(=O)N[C@@H](CC(C)C)C(=O)N[C@@H](CCCCN)C(=O)N[C@@H](CCCCN)C(=O)N[C@@H](CC(C)C)C(=O)N[C@@H](CCCCN)C(=O)N[C@@H](CCCCN)C(=O)N[C@H](C(=O)N[C@H](C(=O)N[C@@H](C)C(=O)N[C@@H](CCCCN)C(N)=O)[C@@H](C)CC)[C@@H](C)CC [GILSKLLKKLKKIIAK]

MIC [19]: ≥ 96 µM
Structure (SMILES): C[C@H](NC(=O)CNC(=O)[C@@H](N)CCCN=C(N)N)C(=O)N[C@@H](CCCN=C(N)N)C(=O)N[C@@H](CCCN=C(N)N)C(=O)N[C@@H](CCCN=C(N)N)C(=O)O [RGARRR]

MIC (Escherichia coli MG1655): 15 µM (≈ 39.8 µg/mL)
MIC [20]: > 15 µM
MIC [21]: 15 µM (≈ 39.8 µg/mL)
MIC [22]: 15 µM (≈ 39.8 µg/mL)
Structure (SMILES): CC(C)C[C@H](NC(=O)[C@H](Cc1c[nH]c2ccccc12)NC(=O)[C@H](Cc1cnc[nH]1)NC(=O)[C@H](CCCCN)NC(=O)[C@H](CC(C)C)NC(=O)[C@H](C)NC(=O)[C@H](CC(C)C)NC(=O)[C@H](CCCCN)NC(=O)CNC(=O)[C@@H](NC(=O)[C@@H](NC(=O)[C@H](CCCCN)NC(=O)[C@@H](NC(=O)[C@H](CCC(=O)O)NC(=O)[C@H](C)NC(=O)[C@H](CCCCN)NC(=O)[C@H](CCCCN)NC(=O)[C@H](CC(C)C)NC(=O)[C@H](CC(C)C)NC(=O)[C@@H](NC(=O)[C@H](CCCN=C(N)N)NC(=O)[C@H](Cc1ccc(O)cc1)NC(=O)CN)[C@@H](C)O)C(C)C)[C@@H](C)O)C(C)C)C(=O)O [GYRTLLKKAEVKTVGKLALKHWL]

MIC [1]: ≥ 2500 µM
MIC [2]: ≥ 2500 µM
MIC [3]: ≥ 2500 µM
MIC [4]: ≥ 2500 µM
MIC [5]: ≥ 2500 µM
MIC [6]: ≥ 2500 µM
MIC [7]: ≥ 2500 µM
MIC [8]: ≥ 2500 µM
MIC [9]: ≥ 2500 µM
MIC [10]: ≥ 2500 µM
MIC [11]: ≥ 1250 µM
MIC [12]: ≥ 1250 µM
MIC [13]: ≥ 2500 µM
Structure (SMILES): CC[C@H](C)[C@H](N)C(=O)N[C@@H](Cc1cnc[nH]1)C(=O)N[C@@H](CCC(N)=O)C(=O)NCC(=O)N[C@@H](CC(C)C)C(=O)N1CCC[C@H]1C(=O)N[C@@H](CCC(N)=O)C(=O)N[C@@H](CCC(=O)O)C(=O)O [IHQGLPQE]

MIC (Escherichia coli BL21AI): 13.9 µM (≈ 32 µg/mL)
MIC [23]: 6.94 µM (≈ 16 µg/mL)
Structure (SMILES): CC[C@H](C)[C@H](NC(=O)[C@H](CCCN=C(N)N)NC(=O)[C@H](CCCN=C(N)N)NC(=O)[C@@H]1CCCN1C(=O)[C@@H]1CCCN1C(=O)[C@H](CCCN=C(N)N)NC(=O)[C@@H]1CCCN1C(=O)[C@H](CCCN=C(N)N)NC(=O)[C@@H]1CCCN1C(=O)[C@H](CC(C)C)NC(=O)[C@H](Cc1ccc(O)cc1)NC(=O)[C@@H]1CCCN1C(=O)[C@@H]1CCCN1C(=O)[C@H](CCCCN)NC(=O)[C@H](CC(=O)O)NC(=O)[C@@H](N)C(C)C)C(=O)N[C@@H](Cc1ccc(O)cc1)C(=O)N[C@@H](CC(N)=O)C(=O)N[C@@H](C)C(N)=O [VDKPPYLPRPRPPRRIYNA]

MIC (Bacillus subtilis 168): 7 µM (≈ 12.8 µg/mL)
MIC [14]: 16 µM (≈ 29.2 µg/mL)
MIC (Escherichia coli B): 4 µM (≈ 7.3 µg/mL)
MIC [15]: 3 µM (≈ 5.48 µg/mL)
MIC [16]: 8 µM (≈ 14.6 µg/mL)
MIC (Pseudomonas aeruginosa): 21 µM (≈ 38.3 µg/mL)
MIC (Staphylococcus aureus 1): 2.6 µM (≈ 4.75 µg/mL)
MIC [17]: 8 µM (≈ 14.6 µg/mL)
MIC (Staphylococcus aureus): 4 µM (≈ 7.3 µg/mL)
MIC [18]: 1.6 µM (≈ 2.92 µg/mL)
Structure (SMILES): CC[C@H](C)[C@H](NC(=O)CN)C(=O)N[C@@H](CC(C)C)C(=O)N[C@@H](CO)C(=O)N[C@@H](CO)C(=O)N[C@@H](CC(C)C)C(=O)N[C@@H](CC(C)C)C(=O)N[C@@H](CCCCN)C(=O)N[C@@H](CCCCN)C(=O)N[C@@H](CC(C)C)C(=O)N[C@@H](CCCCN)C(=O)N[C@@H](CCCCN)C(=O)N[C@@H](Cc1c[nH]c2ccccc12)C(=O)N[C@H](C(=O)N[C@@H](C)C(=O)N[C@@H](CCCCN)C(N)=O)[C@@H](C)CC [GILSSLLKKLKKWIAK]

MIC [21]: ≥ 136 µM
Structure (SMILES): C[C@H](NC(=O)[C@H](C)NC(=O)[C@H](CCCCN)NC(=O)[C@H](CCCCN)NC(=O)[C@H](C)NC(=O)[C@H](Cc1ccccc1)NC(=O)[C@H](CCCCN)NC(=O)[C@H](CCCCN)NC(=O)[C@H](C)NC(=O)[C@H](Cc1ccccc1)NC(=O)[C@H](CCCCN)NC(=O)[C@H](CCCCN)NC(=O)[C@H](C)NC(=O)[C@H](Cc1ccccc1)NC(=O)[C@@H](N)CCCCN)C(=O)N[C@@H](CCCCN)C(=O)O [KFAKKFAKKFAKKAAK]
